# ChEMBL document CHEMBL5390317, “Novel Indane-Containing NBTIs with Potent Anti-Gram-Negative Activity and Minimal hERG Inhibition” (ACS Med Chem Lett, 2023)
# Experiments:
# Acinetobacter baumannii [1] = assay: Antibacterial activity against Acinetobacter baumannii ATCC 51432 assessed as inhibition in bacterial growth incubated for 20 to 24 hrs by CLSI based broth microdilution method; format: functional; settings: Acinetobacter baumannii, ATCC 51432, time 20-24 hrs; read-out: MIC
# Acinetobacter baumannii [2] = assay: Antibacterial activity against Acinetobacter baumannii ATCC BAA-747 assessed as inhibition in bacterial growth incubated for 20 to 24 hrs by CLSI based broth microdilution method; format: functional; settings: Acinetobacter baumannii, ATCC BAA-747, time 20-24 hrs; read-out: MIC
# Pseudomonas aeruginosa [3] = assay: Antibacterial activity against Pseudomonas aeruginosa NCTC 13437 assessed as inhibition in bacterial growth incubated for 20 to 24 hrs by CLSI based broth microdilution method; format: functional; settings: Pseudomonas aeruginosa, NCTC 13437, time 20-24 hrs; read-out: MIC
# Staphylococcus aureus [4] = assay: Antibacterial activity against Staphylococcus aureus ATCC 29213 assessed as inhibition in bacterial growth incubated for 20 to 24 hrs by CLSI based broth microdilution method; format: functional; settings: Staphylococcus aureus, ATCC 29213; time 20-24 hrs; read-out: MIC
# Klebsiella pneumoniae [5] = assay: Antibacterial activity against Klebsiella pneumoniae ATCC 700603 assessed as inhibition in bacterial growth incubated for 20 to 24 hrs by CLSI based broth microdilution method; format: functional; settings: Klebsiella pneumoniae, ATCC 700603, time 20-24 hrs; read-out: MIC
# [6] = Inhibition of Escherichia coli topoisomerase 4 incubated for 120 mins by Transcreener ADP2 FI assay
# Acinetobacter baumannii [7] = assay: Antibacterial activity against Acinetobacter baumannii ATCC 19606 assessed as inhibition in bacterial growth incubated for 20 to 24 hrs by CLSI based broth microdilution method; format: functional; settings: time 20-24 hrs
# Pseudomonas aeruginosa [8] = assay: Antibacterial activity against Pseudomonas aeruginosa ATCC 27853 assessed as inhibition in bacterial growth incubated for 20 to 24 hrs by CLSI based broth microdilution method; format: functional; settings: time 20-24 hrs
# hERG (KCNH2) [9] = molecular target: T1, hERG (KCNH2) (Homo sapiens, UniProt Q12809); assay: Inhibition of hERG potassium channel expressed in CHO cells at 10 uM by electrophysiological patch clamp assay relative to control; format: toxicity, cell-based; settings: CHO cells expressing hERG
# T1 sequence (Q12809 whole entry): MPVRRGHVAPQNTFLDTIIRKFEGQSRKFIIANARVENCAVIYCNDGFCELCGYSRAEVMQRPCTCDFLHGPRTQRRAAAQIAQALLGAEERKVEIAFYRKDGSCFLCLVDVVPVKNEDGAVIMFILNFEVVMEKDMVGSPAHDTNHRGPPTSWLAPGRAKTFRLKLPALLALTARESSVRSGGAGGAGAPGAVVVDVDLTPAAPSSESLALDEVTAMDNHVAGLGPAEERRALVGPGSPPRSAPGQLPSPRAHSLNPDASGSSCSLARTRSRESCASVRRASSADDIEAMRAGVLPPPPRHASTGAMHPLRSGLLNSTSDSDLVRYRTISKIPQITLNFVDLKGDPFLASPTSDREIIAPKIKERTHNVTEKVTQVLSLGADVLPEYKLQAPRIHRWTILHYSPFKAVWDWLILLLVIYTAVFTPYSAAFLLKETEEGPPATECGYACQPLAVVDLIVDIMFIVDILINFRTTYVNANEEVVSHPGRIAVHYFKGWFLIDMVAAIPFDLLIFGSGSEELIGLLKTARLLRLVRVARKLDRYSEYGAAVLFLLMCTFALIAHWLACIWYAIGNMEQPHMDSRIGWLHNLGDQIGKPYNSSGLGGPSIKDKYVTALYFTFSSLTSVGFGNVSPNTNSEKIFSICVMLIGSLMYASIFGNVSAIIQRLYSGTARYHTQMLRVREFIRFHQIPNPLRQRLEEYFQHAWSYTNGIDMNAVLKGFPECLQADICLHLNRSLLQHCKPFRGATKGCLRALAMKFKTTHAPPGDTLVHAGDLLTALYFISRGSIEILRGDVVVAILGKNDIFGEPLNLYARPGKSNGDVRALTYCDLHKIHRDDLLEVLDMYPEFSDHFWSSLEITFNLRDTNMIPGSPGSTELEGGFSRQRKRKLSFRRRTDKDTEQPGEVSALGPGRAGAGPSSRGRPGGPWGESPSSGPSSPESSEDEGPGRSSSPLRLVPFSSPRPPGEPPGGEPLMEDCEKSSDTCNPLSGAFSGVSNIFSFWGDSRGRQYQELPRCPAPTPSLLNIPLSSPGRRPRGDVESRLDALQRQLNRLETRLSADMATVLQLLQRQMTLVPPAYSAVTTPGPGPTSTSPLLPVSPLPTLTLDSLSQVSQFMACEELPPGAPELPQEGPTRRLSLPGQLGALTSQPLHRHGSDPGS
# Klebsiella pneumoniae [10] = assay: Antibacterial activity against Klebsiella pneumoniae ATCC 10031 assessed as inhibition in bacterial growth incubated for 20 to 24 hrs by CLSI based broth microdilution method; format: functional; settings: time 20-24 hrs
# Escherichia coli [11] = assay: Antibacterial activity against Escherichia coli K-12 BW25113 deltaTolC assessed as inhibition in bacterial growth incubated for 20 to 24 hrs by CLSI based broth microdilution method; format: functional; settings: time 20-24 hrs
# Escherichia coli [12] = assay: Antibacterial activity against Escherichia coli ATCC BAA-2340 assessed as inhibition in bacterial growth incubated for 20 to 24 hrs by CLSI based broth microdilution method; format: functional; settings: Escherichia coli, ATCC BAA-2340, time 20-24 hrs; read-out: MIC
# DNA gyrase = DNA gyrase (Escherichia coli, UniProt P0AES4+P0AES6); assay: Inhibition of Escherichia coli DNA gyrase incubated for 80 mins by Transcreener ADP2 FI assay; format: protein-complex assay
# Klebsiella pneumoniae [13] = assay: Antibacterial activity against Klebsiella pneumoniae ATCC BAA-1705 assessed as inhibition in bacterial growth incubated for 20 to 24 hrs by CLSI based broth microdilution method; format: functional; settings: time 20-24 hrs
# hERG (KCNH2) [14] = molecular target: T1, hERG (KCNH2); assay: Inhibition of hERG potassium channel expressed in CHO cells at 1 uM by electrophysiological patch clamp assay relative to control; format: toxicity, cell-based; settings: CHO cells expressing hERG
# Escherichia coli [15] = assay: Antibacterial activity against Escherichia coli K-12 BW25113 assessed as inhibition in bacterial growth incubated for 20 to 24 hrs by CLSI based broth microdilution method; format: functional; settings: Escherichia coli, K-12 BW25113, time 20-24 hrs; read-out: MIC
# Escherichia coli [16] = assay: Antibacterial activity against Escherichia coli ATCC 35218 assessed as inhibition in bacterial growth incubated for 20 to 24 hrs by CLSI based broth microdilution method; format: functional; settings: Escherichia coli, ATCC 35218, time 20-24 hrs; read-out: MIC
# Pseudomonas aeruginosa [17] = assay: Antibacterial activity against Pseudomonas aeruginosa NCTC 11451 assessed as inhibition in bacterial growth incubated for 20 to 24 hrs by CLSI based broth microdilution method; format: functional; settings: Pseudomonas aeruginosa, NCTC 11451, time 20-24 hrs; read-out: MIC
# Escherichia coli [18] = assay: Antibacterial activity against Escherichia coli ATCC 25922 assessed as inhibition in bacterial growth incubated for 20 to 24 hrs by CLSI based broth microdilution method; format: functional; settings: time 20-24 hrs
# [19] = Stability in mouse plasma assessed as parent compound remaining after 5 hrs relative to control; format: ADME, cell-free; settings: read-out: Stability
# hERG (KCNH2) [20] = molecular target: T1, hERG (KCNH2); assay: (§1) Inhibition of hERG potassium channel expressed in CHO cells by electrophysiological patch clamp assay; format: toxicity, cell-based; settings: human, CHO cells expressing hERG
# [21] = molecular target: Voltage-gated inwardly rectifying potassium channel KCNH2 (Homo sapiens, UniProt Q12809); assay: as §1; format: toxicity, cell-based
# Sequence of Voltage-gated inwardly rectifying potassium channel KCNH2 (Q12809 whole entry): as above
# Staphylococcus aureus [22] = assay: Antibacterial activity against Staphylococcus aureus ATCC BAA-1556 assessed as inhibition in bacterial growth incubated for 20 to 24 hrs by CLSI based broth microdilution method; format: functional; settings: Staphylococcus aureus, ATCC BAA-1556, time 20-24 hrs; read-out: MIC
# Klebsiella pneumoniae [23] = assay: Antibacterial activity against Klebsiella pneumoniae ATCC BAA-2146 assessed as inhibition in bacterial growth incubated for 20 to 24 hrs by CLSI based broth microdilution method; format: functional; settings: Klebsiella pneumoniae, ATCC BAA-2146, time 20-24 hrs; read-out: MIC
compound,measurement,setting,value
O=C(CN1CCC1)Nc1cc(F)c2c(c1)CC(CNCCC1CN(c3cnc4c(n3)NC(=O)CO4)C(=O)O1)C2 (centres undefined),MIC,Acinetobacter baumannii [1],8 µg/mL
same,MIC,Acinetobacter baumannii [2],0.125 µg/mL
same,MIC,Pseudomonas aeruginosa [3],1 µg/mL
same,MIC,Staphylococcus aureus [4],1 µg/mL
same,MIC,Klebsiella pneumoniae [5],1 µg/mL
same,IC50,[6],6 nM
same,MIC,Acinetobacter baumannii [7],8 µg/mL
same,MIC,Pseudomonas aeruginosa [8],0.25 µg/mL
same,inhibition at 10 µM,hERG (KCNH2) [9],< 1%
same,MIC,Klebsiella pneumoniae [10],≤ 0.06 µg/mL
same,MIC,Escherichia coli [11],≤ 0.06 µg/mL
same,MIC,Escherichia coli [12],0.125 µg/mL
same,IC50,DNA gyrase,14 nM
same,MIC,Klebsiella pneumoniae [13],1 µg/mL
same,inhibition at 1 µM,hERG (KCNH2) [14],< 1%
same,MIC,Escherichia coli [15],≤ 0.06 µg/mL
same,MIC,Escherichia coli [16],0.125 µg/mL
same,MIC,Pseudomonas aeruginosa [17],1 µg/mL
same,MIC,Escherichia coli [18],0.125 µg/mL
same,remaining at 5 h,[19],10%
same,IC20,hERG (KCNH2) [20],> 10000 nM
same,IC50,[21],> 20000 nM
same,MIC,Staphylococcus aureus [22],2 µg/mL
same,MIC,Klebsiella pneumoniae [23],4 µg/mL
